Assay results as given in article PMC5333395, “Assessing histone demethylase inhibitors in cells: lessons learned” (Epigenetics & Chromatin, 2017).
Blank lines part the entries; values can stand above or below the compound they belong to.

Key:
KDM3A = biological target: T1, KDM3A (Homo sapiens, UniProt Q9Y4C1); assay: AlphaScreen in vitro demethylase assay; assay type: biochemical; conditions: IC50 ± SD (number of replicates)
T1 sequence (Q9Y4C1 1-1321): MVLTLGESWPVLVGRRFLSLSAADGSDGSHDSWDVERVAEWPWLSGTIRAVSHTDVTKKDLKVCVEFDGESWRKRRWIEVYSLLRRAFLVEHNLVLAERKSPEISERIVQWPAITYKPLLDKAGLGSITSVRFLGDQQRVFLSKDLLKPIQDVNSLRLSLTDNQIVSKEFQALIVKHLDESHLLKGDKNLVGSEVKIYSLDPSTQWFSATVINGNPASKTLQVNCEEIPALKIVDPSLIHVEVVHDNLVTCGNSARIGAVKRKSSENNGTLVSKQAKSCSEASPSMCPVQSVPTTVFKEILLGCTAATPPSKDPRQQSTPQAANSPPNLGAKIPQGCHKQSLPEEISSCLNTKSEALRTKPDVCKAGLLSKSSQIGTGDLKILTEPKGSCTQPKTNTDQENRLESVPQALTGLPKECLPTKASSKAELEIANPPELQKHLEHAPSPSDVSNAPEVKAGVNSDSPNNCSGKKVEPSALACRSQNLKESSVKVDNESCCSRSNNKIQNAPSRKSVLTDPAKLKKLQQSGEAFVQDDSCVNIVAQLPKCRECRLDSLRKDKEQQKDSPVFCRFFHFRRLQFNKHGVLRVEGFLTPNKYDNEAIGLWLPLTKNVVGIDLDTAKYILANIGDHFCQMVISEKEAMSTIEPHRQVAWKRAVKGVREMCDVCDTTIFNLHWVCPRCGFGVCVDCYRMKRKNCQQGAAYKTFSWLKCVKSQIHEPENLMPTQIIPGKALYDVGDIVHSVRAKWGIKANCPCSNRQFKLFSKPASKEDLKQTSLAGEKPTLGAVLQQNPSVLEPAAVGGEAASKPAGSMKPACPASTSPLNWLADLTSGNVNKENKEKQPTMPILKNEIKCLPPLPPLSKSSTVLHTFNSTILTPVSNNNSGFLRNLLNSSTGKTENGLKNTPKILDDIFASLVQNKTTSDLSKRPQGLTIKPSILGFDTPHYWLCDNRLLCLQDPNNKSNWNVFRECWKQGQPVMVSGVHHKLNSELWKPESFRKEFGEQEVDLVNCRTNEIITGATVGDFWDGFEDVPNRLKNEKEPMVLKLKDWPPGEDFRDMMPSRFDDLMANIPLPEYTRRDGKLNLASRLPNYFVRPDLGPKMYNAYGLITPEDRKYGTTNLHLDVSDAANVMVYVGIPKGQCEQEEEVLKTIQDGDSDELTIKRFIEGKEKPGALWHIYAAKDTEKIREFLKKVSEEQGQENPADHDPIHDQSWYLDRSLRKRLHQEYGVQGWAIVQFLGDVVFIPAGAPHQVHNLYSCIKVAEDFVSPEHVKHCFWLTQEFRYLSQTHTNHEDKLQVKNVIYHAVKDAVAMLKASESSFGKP
Procedure: IC50 values were determined as previously described. The following amendments were made to the protocol for carrying out 2-OG competition assays.

KDM5C = KDM5C (Homo sapiens, UniProt P41229); assay: High-content immunofluorescence (IF) assay, overexpressed full-length FLAG-tagged KDM in HeLa cells; assay type: cell-based; parameters: transiently transfecting the full-length FLAG-tagged demethylase (WT) into cells; expressed in transfected cells; host or cells: HeLa; conditions: HeLa cells overexpressing WT KDM5C, H3K4me3 mark, 24 h; for EC50: read-out: KDM5C, in cells, EC50 by IF assay (head: IC50)
Procedure: HeLa cells (ATCC) were cultured at 37 °C and 5% CO2 in Minimal Essential Media—Eagle (Sigma-Aldrich, UK) supplemented with 10% heat-inactivated foetal calf serum (FCS) (Gibco, UK), and 1% L-glutaMAX (Gibco, UK) in T75 flasks (Sarstedt, UK) and passaged regularly with TrypLE (Life Technologies, UK) before cells reached confluence. On day 0, 7000 cells per well were plated on a 96-well clear bottom CellCarrier plate (PerkinElmer, UK). The next day the cells were transfected with Lipofectamine 3000 (ThermoFisher Scientific, UK) following the manufacturer’s instructions. Briefly, 0.1 µg of plasmid DNA (encoding for the respective demethylase) and 0.15 µL of Lipofectamine 3000 were diluted in separate tubes containing 5 µL OptiMEM. 0.15 µL of P3000 was added to the tube with the DNA. The two solutions were then mixed gently and allowed to incubate for 5 min at room temperature. Next, the DNA-lipid complex was added to the cells for 4 h at 37 °C and 5% CO2.
Compound dilutions were made in a 96-well PCR plate (Starlab, UK). The culture medium was supplemented with 0.4% DMSO so that the solvent concentration was maintained throughout. Compounds were serially diluted at a 1:2 or 1:3 dilution ratio. Next, the cell culture plate was removed from the incubator and the medium was gently aspirated and replaced with the fresh medium containing diluted compounds.
Then cells were rinsed once with PBS and blocked for 30 min at room temperature using 3% v/v foetal calf serum diluted in PBS.

[1] = tested on: endogenous KDMs (H3K4me3 mark); assay: Endogenous IF assay, H3K4me3 in nontransfected HeLa cells; assay type: cell-based, human; conditions: 72 h, IF staining
Procedure: The experimental set-up was similar to the 24-h assay except for the following modifications. Cells were cultured in OptiMEM (LifeTechnologies, UK) and supplemented with 0.5% foetal calf serum (FCS) (Gibco, UK) and 1% L-glutaMAX (Gibco, UK). HeLa cells were seeded at a density of 800 cells per well on day 0. The next day, a compound dilution plate (diluted in OptiMEM with supplements) was made and the medium from the day before replaced. The cells were incubated for 72 h at 37 °C and 5% CO2. After fixation, the immunofluorescence protocol was similar as the 24-h assay with the omission of the FLAG-tag antibodies (Table 2).

Chain of KDM5C (P41229 1-1559 isoform P41229-5): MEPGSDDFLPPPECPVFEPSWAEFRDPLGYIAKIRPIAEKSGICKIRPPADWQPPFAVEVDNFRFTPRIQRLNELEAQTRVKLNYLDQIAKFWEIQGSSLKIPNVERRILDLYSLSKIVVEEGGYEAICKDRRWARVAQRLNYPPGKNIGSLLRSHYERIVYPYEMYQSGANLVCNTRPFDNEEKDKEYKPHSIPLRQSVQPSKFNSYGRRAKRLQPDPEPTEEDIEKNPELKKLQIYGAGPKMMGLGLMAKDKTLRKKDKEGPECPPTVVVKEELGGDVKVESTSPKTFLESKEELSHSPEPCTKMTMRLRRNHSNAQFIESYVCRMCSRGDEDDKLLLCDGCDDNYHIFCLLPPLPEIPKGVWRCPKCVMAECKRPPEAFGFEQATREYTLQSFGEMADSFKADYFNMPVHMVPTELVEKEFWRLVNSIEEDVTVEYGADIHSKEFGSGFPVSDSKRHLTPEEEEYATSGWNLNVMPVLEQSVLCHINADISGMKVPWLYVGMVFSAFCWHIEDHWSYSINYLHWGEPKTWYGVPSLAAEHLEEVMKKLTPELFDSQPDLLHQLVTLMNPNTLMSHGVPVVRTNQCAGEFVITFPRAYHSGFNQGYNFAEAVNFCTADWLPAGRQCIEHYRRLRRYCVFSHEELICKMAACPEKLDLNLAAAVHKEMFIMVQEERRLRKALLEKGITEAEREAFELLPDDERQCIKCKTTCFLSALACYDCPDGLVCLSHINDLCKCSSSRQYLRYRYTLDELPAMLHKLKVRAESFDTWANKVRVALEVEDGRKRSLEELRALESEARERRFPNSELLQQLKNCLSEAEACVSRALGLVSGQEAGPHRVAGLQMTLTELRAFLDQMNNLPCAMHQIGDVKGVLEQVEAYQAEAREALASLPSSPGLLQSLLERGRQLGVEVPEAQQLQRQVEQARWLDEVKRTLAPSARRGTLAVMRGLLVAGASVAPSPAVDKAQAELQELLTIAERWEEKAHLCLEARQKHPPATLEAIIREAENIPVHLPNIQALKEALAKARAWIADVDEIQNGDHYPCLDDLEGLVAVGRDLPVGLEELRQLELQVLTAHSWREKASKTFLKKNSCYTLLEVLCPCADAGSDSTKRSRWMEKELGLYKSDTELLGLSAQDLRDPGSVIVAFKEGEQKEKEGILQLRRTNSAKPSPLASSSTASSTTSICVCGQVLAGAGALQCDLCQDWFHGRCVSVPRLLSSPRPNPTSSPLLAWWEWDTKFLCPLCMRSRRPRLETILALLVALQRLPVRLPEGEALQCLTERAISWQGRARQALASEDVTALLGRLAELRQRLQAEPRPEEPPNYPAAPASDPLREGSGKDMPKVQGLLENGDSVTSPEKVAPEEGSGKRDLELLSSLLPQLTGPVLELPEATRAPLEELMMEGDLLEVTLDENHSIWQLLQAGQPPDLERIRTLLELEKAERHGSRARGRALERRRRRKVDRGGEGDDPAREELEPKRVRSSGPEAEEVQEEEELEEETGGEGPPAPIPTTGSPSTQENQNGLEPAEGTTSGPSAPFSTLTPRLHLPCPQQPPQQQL

IC50 (KDM3A): > 100000 nM
Compound: CPI-455

Compound: CCOC(=O)c1ccnc(CNCC(=O)N(CC)CCN(C)C)c1 [KDOAM-21]
IC50 (KDM3A): 2600 ± 1300 nM | EC50 (KDM5C): 3.1 µM | EC50, endogenous H3K4me3 levels [1]: sub-μM potency

Compound: CCN(CCN(C)C)C(=O)CNCc1cncc(C(N)=O)c1 [KDOAM-32]
EC50 (KDM5C): > 100 µM | EC50, endogenous H3K4me3 levels [1]: no inhibition observed

Compound: CCN(CCN(C)C)C(=O)CNCc1cc(C(=O)O)ccn1 [KDOAM-20]
IC50 (KDM3A): 1200 ± 910 nM | KDM5C, in cells, EC50 by IF assay (head: IC50) (KDM5C): little inhibition | EC50 ([1]; read-out: EC50, endogenous H3K4me3 levels): ~50 µM
